# Test results as given in patent US8058311B2, “Imaging 18F or 11C-labelled alkylthiophenyl guanidines” (Hammersmith Imanet Limited, priority 2005, dated 2011).
# Test: Biodistribution: radioactivity in rat peripheral organs and body fluids after intravenous injection
# Assay type: in vivo
# Method: N-(2-Chloro-5-(2-[^18F]fluoro-ethylthio))-phenyl-N′-(3-methylthio)-phenyl-N′-methylguanidine was prepared according to Example 4 (synthesis formulation ˜3% ethanol in 0.9% w/v saline solution) with a radiochemical purity of ˜99% and, at time of injection, the specific activity ranged from 4-16 GBq/nmol^−1. Biodistribution and blood data were from 11 adult male Sprague-Dawley rats (body weight range, 269 to 329 g; mean±S.E.=300±18 g). N-(2-Chloro-5-(2-[^18F]fluoro-ethylthio))-phenyl-N′-(3-methylthio)-phenyl-N′-methylguanidine was injected directly into the tail vein of each rat whilst under isoflurane anaesthesia. Each animal was then allowed to recover from anaesthesia. At designated times after injection, rats were sacrificed by cervical dislocation under anaesthesia and brain and body tissues were rapidly sampled.
# The data were acquired using two syntheses. Rats were given an average of 86 MBq (85.3 MBq for first experimental day and 87.3 MBq for the second experimental day), in a volume of 0.20 ml (synthesis formulation ˜3% alcohol), via direct intravenous injection through the tail vein. The mass of co-injected N-(2-Chloro-5-(2-[^18F]fluoro-ethylthio))-phenyl-N′-(3-methylthio)-phenyl-N′-methylguanidine ranged from 0.7-2.9 nmol.kg^−1. Details of the methodology, together with processing and counting of the samples can be found in Hume et al., Nucl. Med. Biol. (1991) 18: 339-351. Data were normalised for injected radioactivity and body weight, giving: ‘uptake units’=(cpm.g^−1 wet weight tissue)·(injected cpm.g^−1 body weight)^−1 Results
# Radioactivity concentration data are additionally collated in Tables 1 (peripheral tissue) and 2 (brain). As metabolite studies were not carried out, the proportion of the total radioactivity reflecting label associated with parent N-(2-Chloro-5-(2-[^18F]fluoro-ethylthio))-phenyl-N′-(3-methylthio)-phenyl-N′-methylguanidine is not known. Note, Blood and plasma samples were collected post-mortem from the heart ventricle.
structure (smiles),measurement,setting,value
CSc1cccc(N(C)C(=N)Nc2cc(SCC[18F])ccc2Cl)c1 [N-(2-Chloro-5-(2-[^18F]fluoro-ethylthio))-phenyl-N′-(3-methylthio)-phenyl-N′-methylguanidine],peripheral clearance route,,via kidney to urine and via the intestine
same,radioactivity in bone,"2 min, n = 1",1.355 uptake units
same,radioactivity in fat,"2 min, n = 1",0.199 uptake units
same,radioactivity in heart (ventricle),"2 min, n = 1",6.412 uptake units
same,radioactivity in kidney,"2 min, n = 1",12.975 uptake units
same,radioactivity in large intestinal content,"2 min, n = 1",0.113 uptake units
same,radioactivity in large intestine,"2 min, n = 1",3.338 uptake units
same,radioactivity in liver,"2 min, n = 1",5.251 uptake units
same,radioactivity in lung,"2 min, n = 1",32.475 uptake units
same,radioactivity in skeletal muscle,"2 min, n = 1",0.288 uptake units
same,radioactivity in skin,"2 min, n = 1",0.338 uptake units
same,radioactivity in small intestinal content,"2 min, n = 1",1.390 uptake units
same,radioactivity in small intestine,"2 min, n = 1",4.537 uptake units
same,radioactivity in spleen,"2 min, n = 1",3.985 uptake units
same,radioactivity in stomach,"2 min, n = 1",0.843 uptake units
same,radioactivity in testis,"2 min, n = 1",0.456 uptake units
same,radioactivity in urine,"2 min, n = 1",0.109 uptake units
same,radioactivity in bone,"5 min, n = 1",1.440 uptake units
same,radioactivity in fat,"5 min, n = 1",0.814 uptake units
same,radioactivity in heart (ventricle),"5 min, n = 1",2.761 uptake units
same,radioactivity in kidney,"5 min, n = 1",10.113 uptake units
same,radioactivity in large intestinal content,"5 min, n = 1",0.148 uptake units
same,radioactivity in large intestine,"5 min, n = 1",3.442 uptake units
same,radioactivity in liver,"5 min, n = 1",5.648 uptake units
same,radioactivity in lung,"5 min, n = 1",25.015 uptake units
same,radioactivity in skeletal muscle,"5 min, n = 1",0.517 uptake units
same,radioactivity in skin,"5 min, n = 1",0.517 uptake units
same,radioactivity in small intestinal content,"5 min, n = 1",1.449 uptake units
same,radioactivity in small intestine,"5 min, n = 1",3.845 uptake units
same,radioactivity in spleen,"5 min, n = 1",3.676 uptake units
same,radioactivity in stomach,"5 min, n = 1",1.245 uptake units
same,radioactivity in testis,"5 min, n = 1",0.528 uptake units
same,radioactivity in urine,"5 min, n = 1",16.760 uptake units
same,radioactivity in bone,"10 min, n = 2",0.793 uptake units
same,radioactivity in fat,"10 min, n = 2",0.234 uptake units
same,radioactivity in heart (ventricle),"10 min, n = 2",1.119 uptake units
same,radioactivity in kidney,"10 min, n = 2",3.931 uptake units
same,radioactivity in large intestinal content,"10 min, n = 2",0.109 uptake units
same,radioactivity in large intestine,"10 min, n = 2",1.359 uptake units
same,radioactivity in liver,"10 min, n = 2",3.199 uptake units
same,radioactivity in lung,"10 min, n = 2",10.229 uptake units
same,radioactivity in skeletal muscle,"10 min, n = 2",0.391 uptake units
same,radioactivity in skin,"10 min, n = 2",0.248 uptake units
same,radioactivity in small intestinal content,"10 min, n = 2",1.162 uptake units
same,radioactivity in small intestine,"10 min, n = 2",1.618 uptake units
same,radioactivity in spleen,"10 min, n = 2",3.008 uptake units
same,radioactivity in stomach,"10 min, n = 2",0.532 uptake units
same,radioactivity in testis,"10 min, n = 2",0.363 uptake units
same,radioactivity in urine,"10 min, n = 2",13.589 uptake units
same,radioactivity in bone,"30 min, n = 3",1.014 ± 0.019 uptake units
same,radioactivity in fat,"30 min, n = 3",0.613 ± 0.175 uptake units
same,radioactivity in heart (ventricle),"30 min, n = 3",0.740 ± 0.019 uptake units
same,radioactivity in kidney,"30 min, n = 3",3.287 ± 0.208 uptake units
same,radioactivity in large intestinal content,"30 min, n = 3",0.445 ± 0.035 uptake units
same,radioactivity in large intestine,"30 min, n = 3",1.619 ± 0.494 uptake units
same,radioactivity in liver,"30 min, n = 3",6.023 ± 0.699 uptake units
same,radioactivity in lung,"30 min, n = 3",3.786 ± 0.292 uptake units
same,radioactivity in skeletal muscle,"30 min, n = 3",0.487 ± 0.036 uptake units
same,radioactivity in skin,"30 min, n = 3",0.491 ± 0.019 uptake units
same,radioactivity in small intestinal content,"30 min, n = 3",6.002 ± 3.338 uptake units
same,radioactivity in small intestine,"30 min, n = 3",2.241 ± 0.617 uptake units
same,radioactivity in spleen,"30 min, n = 3",2.713 ± 0.086 uptake units
same,radioactivity in stomach,"30 min, n = 3",1.558 ± 0.443 uptake units
same,radioactivity in testis,"30 min, n = 3",0.619 ± 0.081 uptake units
same,radioactivity in urine,"30 min, n = 3",49.593 ± 30.733 uptake units
same,radioactivity in bone,"60 min, n = 3",0.944 ± 0.305 uptake units
same,radioactivity in fat,"60 min, n = 3",0.405 ± 0.358 uptake units
same,radioactivity in heart (ventricle),"60 min, n = 3",0.505 ± 0.104 uptake units
same,radioactivity in kidney,"60 min, n = 3",2.429 ± 0.527 uptake units
same,radioactivity in large intestinal content,"60 min, n = 3",1.176 ± 1.109 uptake units
same,radioactivity in large intestine,"60 min, n = 3",7.291 ± 10.308 uptake units
same,radioactivity in liver,"60 min, n = 3",3.659 ± 0.822 uptake units
same,radioactivity in lung,"60 min, n = 3",2.387 ± 0.195 uptake units
same,radioactivity in skeletal muscle,"60 min, n = 3",0.410 ± 0.096 uptake units
same,radioactivity in skin,"60 min, n = 3",0.435 ± 0.109 uptake units
same,radioactivity in small intestinal content,"60 min, n = 3",10.518 ± 7.766 uptake units
same,radioactivity in small intestine,"60 min, n = 3",1.841 ± 0.678 uptake units
same,radioactivity in spleen,"60 min, n = 3",1.675 ± 0.135 uptake units
same,radioactivity in stomach,"60 min, n = 3",1.227 ± 0.351 uptake units
same,radioactivity in testis,"60 min, n = 3",0.605 ± 0.150 uptake units
same,radioactivity in urine,"60 min, n = 3",23.375 ± 18.208 uptake units
same,radioactivity in bone,"90 min, n = 1",0.889 uptake units
same,radioactivity in fat,"90 min, n = 1",0.548 uptake units
same,radioactivity in heart (ventricle),"90 min, n = 1",0.464 uptake units
same,radioactivity in kidney,"90 min, n = 1",2.127 uptake units
same,radioactivity in large intestinal content,"90 min, n = 1",0.764 uptake units
same,radioactivity in large intestine,"90 min, n = 1",0.775 uptake units
same,radioactivity in liver,"90 min, n = 1",2.856 uptake units
same,radioactivity in lung,"90 min, n = 1",2.150 uptake units
same,radioactivity in skeletal muscle,"90 min, n = 1",0.357 uptake units
same,radioactivity in skin,"90 min, n = 1",0.387 uptake units
same,radioactivity in small intestinal content,"90 min, n = 1",8.700 uptake units
same,radioactivity in small intestine,"90 min, n = 1",1.942 uptake units
same,radioactivity in spleen,"90 min, n = 1",1.418 uptake units
same,radioactivity in stomach,"90 min, n = 1",1.103 uptake units
same,radioactivity in testis,"90 min, n = 1",0.559 uptake units
same,radioactivity in urine,"90 min, n = 1",26.947 uptake units
same,de-fluorination (from bone uptake),90 minutes,no evidence of de-fluorination
same,uptake in lung,at 90 minutes,2 uptake units
same,initial uptake in bone,initial,1.4
same,initial uptake in lung,initial,~30 uptake units
same,"initial content in skeletal muscle, skin and testis","low, retained over the course of the experiment",~0.4 uptake units
same,uptake in bone after decrease,over the 90 minutes of the experiment,~0.8
